Earlier results in US8581001B2, “Metformin-cysteine prodrug” (Codman & Shurtleff, priority 2010, dated 2013).

Assays:
human patients = human patients (NASH)
LAT1 = LAT1 (Homo sapiens, UniProt Q01650)
LAT2 = target: T1, LAT2 (Homo sapiens, UniProt Q9UHI5)
T1 sequence (Q9UHI5 1-535): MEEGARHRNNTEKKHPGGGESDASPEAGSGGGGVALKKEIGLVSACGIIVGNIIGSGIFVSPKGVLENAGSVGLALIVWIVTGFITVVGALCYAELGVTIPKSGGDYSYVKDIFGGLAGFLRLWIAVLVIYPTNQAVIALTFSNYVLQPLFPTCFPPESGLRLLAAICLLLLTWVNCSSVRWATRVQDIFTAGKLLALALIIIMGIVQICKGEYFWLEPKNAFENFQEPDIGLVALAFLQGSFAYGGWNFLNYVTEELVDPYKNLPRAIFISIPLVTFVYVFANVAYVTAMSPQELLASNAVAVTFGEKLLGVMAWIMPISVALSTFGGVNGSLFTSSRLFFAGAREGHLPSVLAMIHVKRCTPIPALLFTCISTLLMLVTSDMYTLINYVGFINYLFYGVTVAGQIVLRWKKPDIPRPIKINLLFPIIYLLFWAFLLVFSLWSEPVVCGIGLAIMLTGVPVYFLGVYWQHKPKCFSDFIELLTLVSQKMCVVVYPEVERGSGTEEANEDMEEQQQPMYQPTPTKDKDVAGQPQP
T1 sequence (P08195 1-529 partner): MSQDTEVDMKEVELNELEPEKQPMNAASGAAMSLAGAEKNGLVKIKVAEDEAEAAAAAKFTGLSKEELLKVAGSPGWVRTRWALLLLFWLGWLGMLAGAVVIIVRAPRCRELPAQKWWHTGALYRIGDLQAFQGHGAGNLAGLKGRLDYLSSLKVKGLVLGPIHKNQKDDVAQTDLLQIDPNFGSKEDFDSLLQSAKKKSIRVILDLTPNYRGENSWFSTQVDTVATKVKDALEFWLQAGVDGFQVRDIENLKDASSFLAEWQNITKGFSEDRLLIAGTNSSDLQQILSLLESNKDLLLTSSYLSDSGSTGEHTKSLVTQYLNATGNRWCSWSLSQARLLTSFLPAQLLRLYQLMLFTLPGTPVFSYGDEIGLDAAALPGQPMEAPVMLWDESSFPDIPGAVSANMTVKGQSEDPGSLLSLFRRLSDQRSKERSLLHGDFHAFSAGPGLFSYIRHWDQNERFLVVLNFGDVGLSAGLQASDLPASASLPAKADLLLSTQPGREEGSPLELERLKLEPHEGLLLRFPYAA

[1] = not given; remark: listed apart in the source

LAT1, sequence (Q01650 whole entry, species assumed, one chain of several): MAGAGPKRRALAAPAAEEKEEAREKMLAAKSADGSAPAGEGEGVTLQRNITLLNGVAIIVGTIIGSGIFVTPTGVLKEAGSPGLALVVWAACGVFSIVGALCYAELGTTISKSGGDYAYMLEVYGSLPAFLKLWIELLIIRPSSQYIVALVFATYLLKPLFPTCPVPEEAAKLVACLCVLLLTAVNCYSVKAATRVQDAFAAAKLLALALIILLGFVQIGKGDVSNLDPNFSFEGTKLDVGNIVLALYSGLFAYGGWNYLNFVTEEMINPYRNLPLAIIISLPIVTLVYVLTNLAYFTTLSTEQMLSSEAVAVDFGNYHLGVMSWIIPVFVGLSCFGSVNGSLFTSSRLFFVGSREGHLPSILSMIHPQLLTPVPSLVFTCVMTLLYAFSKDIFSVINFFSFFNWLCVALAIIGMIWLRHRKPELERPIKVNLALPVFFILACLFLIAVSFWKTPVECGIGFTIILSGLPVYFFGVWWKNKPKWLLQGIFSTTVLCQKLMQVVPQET

## CC(=O)N[C@@H](CS)C(=O)O [NAC, n-acetylcysteine]
Human patients
  amelioration of the complications of non-alcoholic fatty liver disease: neither metformin nor NAC alone provided any significant benefits

## N[C@@H](CCC(=O)N[C@@H](CSSC[C@H](N)C(=O)O)C(=O)NCC(=O)O)C(=O)O [Cy-LLGSH]
mice
  protection against acetaminophen-induced hepatotoxicity: highly effective

## N[C@@H](CSN=O)C(=O)O [s-nitroso-L-cysteine]
LAT1
  transport by LAT1 transporter: efficiently transported
LAT2
  transport by LAT2 transporter: efficiently transported

## CN(C)C(=N)N=C(N)N [metformin]
Human patients
  amelioration of the complications of non-alcoholic fatty liver disease: neither metformin nor NAC alone provided any significant benefits
colon
  absorption in the colon: poorly absorbed
Small intestine
  uptake in the small intestine: effectively taken up
[1]; FIG. 4 of US 2007-0154548
  window in which metformin is above ½ of its Cmax: about 6 hours
[1]; in vivo
  time window for effective plasma concentrations: about 6 hours
